Data on three compounds can be found in ChEMBL document CHEMBL1135010, “Synthetic studies of cis-4-Amino-L-proline derivatives as novel lipid lowering agents” (2002).

Calls of active or inactive are those of the source. The calls are words filed in the database; no cut-off is given here.

Assay [1] in a line: Screening was performed to determine its plasma triglyceride lowering activity on administration of 10 mg/kg/day dose for 6 days on inbreed colony of Swiss Albino Mice. Format: functional, Mus musculus.
In a further assay the test system is Mus musculus. Put plainly: Screening was performed to determine its plasma triglyceride lowering activity on administration of 10 mg/kg/day on inbreed colony of Swiss Albino Mice; No significant reduction. It counts as functional, organism-based.
Assay [2] in a line: Screening was performed to determine its plasma triglyceride lowering activity on administration of 30 mg/kg/day dose for 6 days on inbreed colony of Swiss Albino Mice. It counts as functional, Mus musculus.

The compound `CCCc1nn(C)c2c(=O)n(CC(=O)N[C@H]3C[C@@H](C(=O)OCC)N(C(=O)OC(C)(C)C)C3)c(CC)nc12` came in with a Lowering activity in assay [1] of 40%.
`CCc1nc2ccccc2c(=O)n1CC(=O)N[C@H]1C[C@@H](C(=O)O)N(C(=O)OC(C)(C)C)C1` registered a Lowering activity in assay [1] of 30%.
Turning to `CC(C)OC(=O)C(C)(C)Oc1ccc(C(=O)c2ccc(Cl)cc2)cc1` [FENOFIBRATE], in the assay with Mus musculus, the Lowering activity result is “inactive”. In addition, the Lowering activity in assay [2] is listed as 36%.
